≈ marks a conversion by molar mass, not a printed value. Read-outs that look alike come from different tables or passages of the source.
Tests used:
acid secretion = test: VOL, TAO: Acid Secretion Inhibition Test In Vivo; design: species or system rat (male Crj:Donryu); conditions: rat; for TAO: total acid output inhibitory rate / VOL: gastric juice volume inhibitory rate: 100 mg/kg oral, histamine-stimulated, pylorus ligated; for gastric acid secretion inhibition effect (in words): in vivo
Method: VOL, TAO: Acid Secretion Inhibition Test In Vivo
Inhibitory effect on acid secretion in vivo is confirmed.
Male Crj:Donryu rats (7-week-old) were fasted overnight but allowed free access to water. In each group, 8 to 10 of these rats were used under urethane anesthesia (1.25 g/kg). The sample compound dissolved or suspended in an aqueous solution of 0.5% sodium carboxymethylcellulose or 0.05% Tween 80 was orally administered (100 mg/10 ml/kg). 30 minutes later, the abdomen of each was incised and the pylorus was ligated. 30 minutes after the ligation, 30 mg/kg of histamine dissolved in physiological saline were subcutaneously administered and, 3 hours thereafter, the rat was sacrificed with carbon dioxide. Immediately thereafter, each stomach was removed and the gastric contents were collected and each volume was determined. The total acid output was determined by titration of the gastric juice with 0.1N NaOH.
With respect to the gastric juice volume (VOL) and the total acid output (TAO), the effects obtained when 100 mg/kg of the sample compound had been administered were expressed as their respective inhibitory rates (%) as follows:
each inhibitory rate (%)=[1-(value in sample group/value in control group)]×100

[1] = system: isolated gastric fundic gland; test: CAP: Acid Secretion Inhibition Test In Vitro ([14C]-aminopyrine uptake); assay type: cell-based, rabbit (male Japanese White); conditions: for inhibition at 10 µM: Oryctolagus cuniculus, read-out: CAP: acid secretion inhibitory rate
Method: CAP: Acid Secretion Inhibition Test In Vitro
The acid secretion inhibitory activity in a cell level is studied. It can also be used for studying the mechanism of the effect. […]
ii-a) Preparation of isolated gastric fundus gland suspension
First, an isolated gastric fundic gland sample was prepared. Namely, a male Japanese White rabbit (2.5 to 3 kg) was anesthetized to death with Nembutal™ and then the abdomen was incised. Immediately thereafter, the stomach was removed and, after its pyloric and cardiac antrum were severed, incised along its greater curvature into two sheets. The gastric contents adhering to the mucosal surface was washed out with ice-cooled PBS (-) and then carefully washed therein. The gastric wall was spread on a cork board with its mucosal surface facing up and the feed and mucus thereon were completely removed with sterile gauze. The mucosa was separated therefrom by a spatula and then collected in ice-cooled PBS (-). After being washed twice with PBS (-), the mucosa was minced into 2-3mm^3 pieces by scissors. These pieces were further washed twice with a nutrient solution. The nutrient solution comprises 132.4 mM of NaCl, 5.4 mM of KCl, 5 mM of Na2 HPO4 ·12H2 O, 1 mM of NaH2 PO4 ·2H2 O, 1.2 mM of MgSO4, 1 mM of CaCl2, 25 mM of HEPES, 2mg/ml of glucose, and 1 mg/ml of BSA. Into 70 ml of the nutrient solution containing 1 mg/ml of collagenase, minced mucosal pieces were dispersed and intensely stirred in a conical flask with a stirrer at 37° C. for 40 to 60 minutes. During this period, 100% O2 was sprayed on the nutrient solution surface and the pH was appropriately measured such that it was immediately adjusted to pH 7.4, when the value was therebelow, with a base. The nutrient solution was added to the reaction solution so as to attain the total amount of about 200 ml. After being filtered through a mesh, the suspension was divisionally introduced into 50 ml centrifuge tubes and left for 15 minutes such that gastric fundic gland was deposited. The supernatant was repeatedly removed by an aspirator, dispersed in the nutrient solution, and then left such that the gastric fundic gland was washed three times. At this time, without using a pipette, the suspension was alternately introduced into two centrifuge tubes so as to effect dispersion. The number of cells was counted under microscope and adjusted to 1.6×10^6 cells/ml. […]
ii-b) [^14 C]-aminopyrine uptake test
Then, [^14 C]-aminopyrine uptake test was performed. After an Eppendorf tube was weighed, 10 μl (final concentration: 10^-5 M) of histamine dissolved in the above-mentioned nutrient solution, 10 μl (final concentration: 10^-5 M) of the test compound dissolved in DMSO, and 10 μl (final concentration: 0.05 μCi/ml) of [^14 C]-aminopyrine diluted with the nutrient solution were introduced therein and then 970 μl of the isolated gastric fundic gland suspension prepared above were added thereto. Subsequently, this mixture was shaken at 37° C. for 40 minutes at 125 cycles/minute. After being centrifuged for 30 minutes 200 μl of its supernatant was collected into a mini-vial, while the rest was removed by an aspirator. The gland pellet was completely dried as the tube with its lid being opened was kept for one night in a drying oven at 80° C. and then the lid was closed and the weight was determined at room temperature. Then 100 μl of 1N KOH were added thereto and the tube with its lid being closed was treated at 60° C. for 1 to 2 hours so as to dissolve the pellet. Then, the contents thereof were transferred to a mini-vial. Into the mini-vial containing the supernatant or gland pellet, 4 ml of Atomlite™ were added and then the radioactivity was measured by a liquid scintillation counter. Here, after the radioactivity of the gland pellet was corrected by using a sample in which 20 mM of NaSCN were added so as to cancel the hydrogen ion concentration gradient, the integration ratio of aminopyrine specifically trapped by the gland pellet was calculated. […]

Helicobacter pyroli = test: AHP: Antibacterial Activity Test Against Helicobacter pyroli; assay type: cell-based, Helicobacter pyroli NCTC 11637; conditions: for MIC: Helicobacter, NCTC11637, 168 h, H. pyroli NCTC 11637, agar dilution, 7 days, read-out: AHP: minimum inhibitory concentration (MIC)
Method: AHP: Antibacterial […] Against Helicobacter pyroli i)Meaning The minimum inhibitory concentration (MIC) against Helicobacter pyroli (microaerophilic gram-negative bacterium which is supposed to deeply involve in pathogenesis, relapse, and recrudescence of ulcer, referred to as "HP" in the following) is measured so as to find out compounds which have antimicrobial activity against Helicobacter pyroli. ii)Method MICs were determined by the agar dilution method. […] Grown colonies were transfered to the same plate and cultured for 3 days under the same condition. […] A 1,000 μg/ml solution of the sample compound containing DMSO not more than 25% was […] diluted 2-fold in sterile purified water. 100 μl volume from each dilution was mixed thoroughly with 900 μl of brucella agar supplemented with 5% horse blood and solidified in a 24 well micro plate. 10 μl of the bacterial suspension (about 10^3 cfu) was inoculated on this plate and cultured for 7 days under the same condition as that of preculture.

[2] = final concentration 10^-5 M, histamine 10^-5 M, rabbit gastric fundic gland

MIC (Helicobacter pyroli)	Structure (SMILES)	TAO: total acid output inhibitory rate (acid secretion)	VOL: gastric juice volume inhibitory rate (acid secretion)	inhibition at 10 µM [1, 2]	further results
–	CC(C)Cc1cc(CN2CCN(CC(C)C)CC2)ccc1OCc1ccc(F)cc1.Cl.Cl [Example 20, 1-[4-(4-fluorobenzyloxy)-3-isobutylbenzyl]-4-isobutylpiperazine dihydrochloride]	43%	12%	100%	–
12.5 µg/mL (≈ 28.1 µM)	CC(C)Cc1cc(C(=O)N2CCN(CC(C)C)CC2)ccc1OCc1ccc(F)c(F)c1 [Example 26, 1-[4-(3,4-difluorobenzyloxy)-3-isobutylbenzoyl]-4-isobutylpiperazine]	–	–	–	CAP: acid secretion inhibitory rate [1, 2]: 99%
< 3.13 µg/mL	CC(C)Cc1cc(C(=O)N2CCN(C(=O)C(C)C)CC2)ccc1OCc1ccc(F)cc1 [Example 6, 1-[4-(4-fluorobenzyloxy)-3-isobutylbenzoyl]-4-isobutyrylpiperazine]	–	–	57%	–
–	CC(C)Cc1cc(C(=O)N2CCN(CC(C)C)CC2)ccc1OCc1ccc(F)cc1 [Example 21, 1-[4-(4-fluorobenzyloxy)-3-isobutylbenzoyl]-4-isobutylpiperazine]	35%	9%	100%	gastric acid secretion inhibition effect (in words) (acid secretion): improved; antibacterial activity against Helicobacter pyroli (in words) (Helicobacter pyroli): improved
–	CC(C)CN1CCN(C(=O)c2ccc(OCc3ccccc3)cc2)CC1 [Example 3, 1-(4-benzyloxybenzoyl)-4-isobutylpiperazine]	–	–	85%	–
6.25 µg/mL	CC(C)Cc1cc(C(=O)N2CCN(CC(C)C)CC2)ccc1OCc1ccc(F)cc1F.Cl [Example 24, 1-[4-(2,4-difluorobenzyloxy)-3-isobutylbenzoyl]-4-isobutylpiperazine hydrochloride]	33%	7%	99%	–
6.25 µg/mL (≈ 14.1 µM)	CC(C)Cc1cc(C(=O)N2CCN(CC(C)C)CC2)ccc1OCc1ccc(F)cc1F [Example 27, 1-[4-(2,4-difluorobenzyloxy)-3-isobutylbenzoyl]-4-isobutylpiperazine]	–	–	–	CAP: acid secretion inhibitory rate [1, 2]: 99%
12.5 µg/mL	CC(C)Cc1cc(C(=O)N2CCN(CC(C)C)CC2)ccc1OCc1ccc(F)cc1.Cl [Example 22, 1-[4-(4-fluorobenzyloxy)-3-isobutylbenzoyl]-4-isobutylpiperazine hydrochloride]	22%	10%	–	gastric acid secretion inhibition effect (in words) (acid secretion): improved; CAP: acid secretion inhibitory rate [1, 2]: 98%; antibacterial activity against Helicobacter pyroli (in words) (Helicobacter pyroli): improved
–	CC(C)CN1CCN(C(=O)c2ccc(OCc3ccc(F)cc3)cc2)CC1.Cl [Example 2, 1-[4-(4-fluorobenzyloxy)benzoyl]-4-isobutylpiperazine hydrochloride]	–	–	99%	–
–	CC(C)Cc1cc(CC(=O)N2CCN(CC(C)C)CC2)ccc1OCc1ccccc1 [Example 15, 1-(4-benzyloxy-3-isobutylphenylacetyl)-4-isobutylpiperazine]	–	–	–	inhibition at 10 µM [1]: 99%
–	CC(C)Cc1cc(C(=O)N2CCN(CC(C)C)CC2)ccc1OCc1ccccc1F.Cl [Example 19, 1-[4-(2-fluorobenzyloxy)-3-isobutylbenzoyl]-4-isobutylpiperazine hydrochloride]	42%	6%	–	CAP: acid secretion inhibitory rate [1, 2]: 95%
12.5 µg/mL (≈ 33.7 µM)	CC(C)CN1CCN(C(=O)c2ccc(OCc3ccc(F)cc3)cc2)CC1 [Example 5, 1-[4-(4-fluorobenzyloxy)benzoyl]-4-isobutylpiperazine]	–	–	–	CAP: acid secretion inhibitory rate [1, 2]: 96%
12.5 µg/mL	CC(C)Cc1cc(C(=O)N2CCN(CC(C)C)CC2)ccc1OCc1ccc([N+](=O)[O-])cc1.Cl [Example 13, 1-isobutyl-4-[3-isobutyl-4-(4-nitrobenzyloxy)benzoyl]piperazine hydrochloride]	18%	3%	–	–
25 µg/mL	C=C(C)Cc1cc(C(=O)N2CCN(CC(C)C)CC2)ccc1OCc1ccc(F)cc1.Cl [Example 4, 1-[4-(4-fluorobenzyloxy)-3-methallylbenzoyl]-4-isobutylpiperazine hydrochloride]	–	–	94%	–
–	CC(C)Cc1cc(C(=O)N2CCN(CCO)CC2)ccc1OCc1ccc(F)cc1 [Example 9, 1-[4-(4-fluorobenzyloxy)-3-isobutylbenzoyl]-4-(2-hydroxyethyl)piperazine]	–	–	100%	–
–	Cc1cccc(COc2ccc(C(=O)N3CCN(CC(C)C)CC3)cc2CC(C)C)c1F.Cl [Example 12, 1-[4-(2-fluoro-3-methylbenzyloxy)-3-isobutylbenzoyl]-4-isobutylpiperazine hydrochloride]	–	–	100%	–
25 µg/mL (≈ 57 µM)	COc1ccc(COc2ccc(C(=O)N3CCN(CC(C)C)CC3)cc2CC(C)C)cc1 [Example 14, 1-isobutyl-4-[3-isobutyl-4-(4-methoxybenzyloxy)benzoyl]piperazine]	–	–	100%	–
12.5 µg/mL (≈ 29.3 µM)	CC(C)Cc1cc(C(=O)N2CCN(CC(C)C)CC2)ccc1OCc1ccccc1F [Example 18, 1-[4-(2-fluorobenzyloxy)-3-isobutylbenzoyl]-4-isobutylpiperazine]	–	–	100%	–
–	CC(C)CN1CCN(C(=O)c2ccc(OCc3ccc(F)cc3)c([N+](=O)[O-])c2)CC1.Cl [Example 8, 1-[4-(4-fluorobenzyloxy)-3-nitrobenzoyl]-4-isobutylpiperazine hydrochloride]	16%	8%	100%	–

Structure (SMILES)	MIC (Helicobacter pyroli)	TAO: total acid output inhibitory rate (acid secretion)	VOL: gastric juice volume inhibitory rate (acid secretion)	inhibition at 10 µM [1, 2]	further results
CC(C)Cc1cc(C(=O)N2CCN(CC(C)C)CC2)ccc1OCc1ccc(Cl)cc1 [Example 17, 1-[4-(4-chlorobenzyloxy)-3-isobutylbenzoyl]-4-isobutylpiperazine]	12.5 µg/mL (≈ 28.2 µM)	–	–	99%	–
CC(C)Cc1cc(C(=O)N2CCN(CC(C)C)CC2)ccc1OCc1ccccc1 [Example 16, 1-(4-benzyloxy-3-isobutylbenzoyl)-4-isobutylpiperazine]	50 µg/mL (≈ 122 µM)	–	–	98%	–
